Measurements as given in ChEMBL document CHEMBL4130375, “Design, synthesis and biological evaluation of 4-amidobenzimidazole acridine derivatives as dual PARP and Topo inhibitors for cancer therapy” (Eur J Med Chem, 2017).
The source made the active and inactive calls. The rule behind the calls is not given here.

Legend:
[1] = test system: HCC1937; assay: Antiproliferative activity against human HCC1937 cells harboring BRCA1 mutant after 72 hrs by MTT assay; type: functional, cell-based; details: HCC1937, 72 h
[2] = test system: HCT-116; assay: Antiproliferative activity against human HCT116 cells expressing topoisomerase-1 after 72 hrs by MTT assay; type: functional, cell-based; details: HCT-116, 72 h
[3] = test system: MCF7; assay: cells; details: Homo sapiens, MCF7, 72 h
[4] = biological target: Poly [ADP-ribose] polymerase 1 (Homo sapiens, UniProt P09874); assay: Inhibition of PARP1 (unknown origin) assessed as reduction in biotinylated poly(ADP-ribose) incorporation on to histone protein by ELISA based colorimetric assay
Chain of Poly [ADP-ribose] polymerase 1 (P09874 whole entry): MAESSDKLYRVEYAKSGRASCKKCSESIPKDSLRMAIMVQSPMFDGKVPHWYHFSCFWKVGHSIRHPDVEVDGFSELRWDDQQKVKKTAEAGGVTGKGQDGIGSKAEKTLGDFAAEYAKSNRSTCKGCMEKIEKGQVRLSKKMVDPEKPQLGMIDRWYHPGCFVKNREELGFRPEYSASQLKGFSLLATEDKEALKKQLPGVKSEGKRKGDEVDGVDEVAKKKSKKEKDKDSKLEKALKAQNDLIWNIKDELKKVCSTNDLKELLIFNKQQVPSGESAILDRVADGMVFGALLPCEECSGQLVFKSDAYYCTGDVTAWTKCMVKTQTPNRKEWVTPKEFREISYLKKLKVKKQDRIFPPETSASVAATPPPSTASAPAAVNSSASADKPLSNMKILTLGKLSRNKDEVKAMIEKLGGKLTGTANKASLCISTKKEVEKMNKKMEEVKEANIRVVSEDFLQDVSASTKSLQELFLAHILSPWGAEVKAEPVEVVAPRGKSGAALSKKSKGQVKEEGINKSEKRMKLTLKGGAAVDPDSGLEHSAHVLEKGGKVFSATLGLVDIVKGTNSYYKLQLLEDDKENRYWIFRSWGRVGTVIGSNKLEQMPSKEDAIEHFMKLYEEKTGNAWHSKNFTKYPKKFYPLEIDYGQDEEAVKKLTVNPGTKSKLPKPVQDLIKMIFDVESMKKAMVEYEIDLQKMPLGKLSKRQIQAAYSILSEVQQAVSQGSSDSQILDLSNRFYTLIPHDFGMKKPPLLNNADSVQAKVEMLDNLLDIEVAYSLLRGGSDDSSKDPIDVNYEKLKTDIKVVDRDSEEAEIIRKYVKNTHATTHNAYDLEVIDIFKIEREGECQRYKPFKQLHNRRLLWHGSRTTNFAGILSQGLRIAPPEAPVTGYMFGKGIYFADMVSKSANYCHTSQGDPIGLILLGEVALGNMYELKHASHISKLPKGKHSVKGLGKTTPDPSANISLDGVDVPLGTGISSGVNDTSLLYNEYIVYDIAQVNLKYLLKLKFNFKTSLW

[5] = biological target: DNA topoisomerase 2-alpha (Homo sapiens) (UniProt P11388); assay: Inhibition of human topoisomerase-2 at 100 uM using supercoiled pBR322 DNA as substrate after 10 to 15 mins by ethidium bromide staining based electrophoresis method
Chain of DNA topoisomerase 2-alpha (Homo sapiens) (P11388 whole entry): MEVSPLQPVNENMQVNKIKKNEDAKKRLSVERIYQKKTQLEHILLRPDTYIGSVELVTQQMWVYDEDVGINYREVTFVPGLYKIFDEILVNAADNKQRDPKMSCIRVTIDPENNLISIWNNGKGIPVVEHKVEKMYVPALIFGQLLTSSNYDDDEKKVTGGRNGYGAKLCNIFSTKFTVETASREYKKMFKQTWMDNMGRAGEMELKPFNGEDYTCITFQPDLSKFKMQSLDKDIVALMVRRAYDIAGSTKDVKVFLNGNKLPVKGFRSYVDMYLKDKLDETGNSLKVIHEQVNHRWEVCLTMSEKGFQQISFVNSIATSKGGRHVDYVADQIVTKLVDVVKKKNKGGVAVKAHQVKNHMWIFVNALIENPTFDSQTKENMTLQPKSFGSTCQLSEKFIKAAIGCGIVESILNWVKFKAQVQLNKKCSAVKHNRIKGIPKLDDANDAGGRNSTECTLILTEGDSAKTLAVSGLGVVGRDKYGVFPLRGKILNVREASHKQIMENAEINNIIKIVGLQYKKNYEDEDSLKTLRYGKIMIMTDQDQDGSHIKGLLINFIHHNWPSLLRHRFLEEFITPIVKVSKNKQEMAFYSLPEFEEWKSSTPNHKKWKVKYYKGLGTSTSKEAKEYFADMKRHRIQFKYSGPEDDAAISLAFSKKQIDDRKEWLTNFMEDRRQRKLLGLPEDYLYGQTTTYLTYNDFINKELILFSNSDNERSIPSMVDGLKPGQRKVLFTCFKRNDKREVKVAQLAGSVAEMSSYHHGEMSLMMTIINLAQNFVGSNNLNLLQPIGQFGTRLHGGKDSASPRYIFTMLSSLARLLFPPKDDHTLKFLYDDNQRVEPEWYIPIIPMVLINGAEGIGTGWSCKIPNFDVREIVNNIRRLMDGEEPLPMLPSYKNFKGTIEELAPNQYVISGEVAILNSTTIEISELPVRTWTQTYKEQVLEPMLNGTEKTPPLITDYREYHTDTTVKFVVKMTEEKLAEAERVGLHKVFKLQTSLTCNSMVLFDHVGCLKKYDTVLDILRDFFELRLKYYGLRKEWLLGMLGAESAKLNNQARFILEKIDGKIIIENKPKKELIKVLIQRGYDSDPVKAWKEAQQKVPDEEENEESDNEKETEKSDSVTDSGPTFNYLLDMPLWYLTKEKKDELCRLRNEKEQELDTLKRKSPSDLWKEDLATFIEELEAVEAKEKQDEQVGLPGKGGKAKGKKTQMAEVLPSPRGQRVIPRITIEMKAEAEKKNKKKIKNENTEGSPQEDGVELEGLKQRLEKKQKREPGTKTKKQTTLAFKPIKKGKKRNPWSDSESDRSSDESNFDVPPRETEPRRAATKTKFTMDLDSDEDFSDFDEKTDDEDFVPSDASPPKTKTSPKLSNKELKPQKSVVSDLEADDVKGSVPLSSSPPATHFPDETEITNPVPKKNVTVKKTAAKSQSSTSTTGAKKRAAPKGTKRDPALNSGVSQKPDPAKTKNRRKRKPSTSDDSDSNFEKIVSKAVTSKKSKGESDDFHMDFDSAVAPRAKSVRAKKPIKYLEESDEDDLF

IC50 [1]	IC50 [2]	IC50 [3]	IC50 [4]	inhibition [5]	SMILES
7.85 µM	3.89 µM	8.7 µM	–	–	COc1cc(NS(C)(=O)=O)ccc1Nc1c2ccccc2nc2ccccc12 [AMSACRINE]
4.97 µM	15.1 µM	36.2 µM	–	–	O=C(c1cc(Cc2n[nH]c(=O)c3ccccc23)ccc1F)N1CCN(C(=O)C2CC2)CC1 [OLAPARIB]
–	–	> 50 µM	0.03 µM	–	NC(=O)c1cccc2[nH]c(-c3cccc(N)c3)nc12
–	–	> 50 µM	0.03 µM	–	NC(=O)c1cccc2nc(-c3ccc(N)cc3)[nH]c12
–	–	39.3 µM	0.1 µM	Active	Cc1ccc2nc3ccccc3c(Nc3ccc(-c4nc5c(C(N)=O)cccc5[nH]4)cc3)c2c1
–	–	> 50 µM	> 50 µM	–	NC(=O)c1cccc2[nH]c(-c3ccccc3N)nc12
–	–	21.8 µM	1.7 µM	Active	COc1ccc2nc3ccccc3c(Nc3ccccc3-c3nc4c(C(N)=O)cccc4[nH]3)c2c1
–	–	25.8 µM	0.97 µM	Active	COc1cccc2c(Nc3cccc(-c4nc5c(C(N)=O)cccc5[nH]4)c3)c3ccccc3nc12
–	–	13.2 µM	0.19 µM	Active	COc1cccc2c(Nc3ccc(-c4nc5c(C(N)=O)cccc5[nH]4)cc3)c3ccccc3nc12
–	–	> 50 µM	1.99 µM	Active	NC(=O)c1cccc2[nH]c(-c3ccccc3Nc3c4ccccc4nc4ccccc34)nc12
–	–	12 µM	0.09 µM	Active	NC(=O)c1cccc2[nH]c(-c3ccc(Nc4c5ccccc5nc5ccccc45)cc3)nc12
–	–	> 50 µM	0.32 µM	Active	CCCCc1ccc2nc3ccccc3c(Nc3cccc(-c4nc5c(C(N)=O)cccc5[nH]4)c3)c2c1
–	–	39.1 µM	0.14 µM	Active	Cc1cccc2c(Nc3ccc(-c4nc5c(C(N)=O)cccc5[nH]4)cc3)c3ccccc3nc12
–	–	36.1 µM	1.39 µM	–	NC(=O)c1cccc2[nH]c(-c3cccc(Nc4c5ccccc5nc5ccccc45)c3)nc12
–	–	38.2 µM	0.25 µM	Active	COc1ccc2nc3ccccc3c(Nc3ccc(-c4nc5c(C(N)=O)cccc5[nH]4)cc3)c2c1
–	–	29.6 µM	0.51 µM	Active	Cc1ccc2nc3ccccc3c(Nc3cccc(-c4nc5c(C(N)=O)cccc5[nH]4)c3)c2c1
–	–	26.1 µM	–	–	c1ccc2[nH]c(-c3ccc(Nc4c5ccccc5nc5ccccc45)cc3)nc2c1
–	–	> 50 µM	0.13 µM	Active	CCCCc1ccc2nc3ccccc3c(Nc3ccc(-c4nc5c(C(N)=O)cccc5[nH]4)cc3)c2c1
–	–	45.3 µM	1.14 µM	Active	COc1ccc2nc3ccccc3c(Nc3cccc(-c4nc5c(C(N)=O)cccc5[nH]4)c3)c2c1
